Assays:
ETC complex I = ETC complex I activity in ibrutinib-resistant MCL cell lines; format: cell-based, human; settings: Z-138 and Maver-1; 20 nM, 24 hours; FIGS. 11A & 11B
[1] = tested on: ibrutinib-resistant Z-138 and Maver-1 cell lines; assay: Mitochondria membrane potential (TMRE), ibrutinib-resistant MCL cell lines; format: cell-based, human; settings: 20 nM IACS-010759 and/or 5 μM BPTES for 24 hours; FIGS. 5C & 5D
Procedure: (§1) Mitochondria membrane potential, mitochondria mass, ROS, and apoptosis analysis. MCL cells were seeded and cultured overnight before treatment to reach log phase. Respective cell lines were plated at 2×10^6 cells/well in 6-well plates in phenol-red and pyruvate-free DMEM assay medium containing 5 mM glucose (Sigma), 2 mM GlutaMAX (Gibco, ThermoFisher Scientific), and 5% dialyzed FCS (Gibco). Vehicle, IACS-0107059 (20 nM), or (1-5 μM) BPTES was added and replenished every day until the indicated time points. ROS and mitochondria membrane potential were evaluated 24 hours after treatment. To determine mitochondria membrane potential (Δψm), treated cells were loaded with MitoStatus tetramethylrhodamine, ethyl ester (TMRE) (BD Biosciences) at 37° C. for 15 min and washed with PBS twice to remove residual TMRE. TMRE dye fluorescence retained in the cells was detected by flow cytometry with excitation and emission of 548/574 nm. Data were analyzed with NovoExpress (ACEA Biosciences, San Diego, Calif., USA) or FlowJo10 (Tree Star, Ashland, Oreg., USA).

[2] = tested on: ibrutinib-resistant (Maver-1 and Z-138) MCL cell lines; assay: Intracellular ATP, ibrutinib-resistant MCL cell lines; format: cell-based, human; settings: 20 nM for 24 hours; 0 nM vs 20 nM p<0.0001; FIG. 11C
Procedure: (§2) MCL cell lines were seeded at 1-2×10^6 cells/well in triplicate in six-well plates and incubated overnight. Next, the media were replaced with 3 mL complete RPMI-1640 medium with or without inhibitors. […] and analyzed for their glucose, glutamine and lactate content using the Glucose, Glutamine and Lactate Colorimetric Assay Kits (BioVision), respectively, according to the manufacturer's instructions. Glucose or glutamine consumption was extrapolated by subtracting the measured glucose concentrations in the media from the initial concentrations (11.1 mM glucose; 2 mM glutamine). Intracellular ATP contents from above treated cells was determined using ATP Colorimetric Assay Kit (Biovision) as outlined in the manufacturer's protocol. […]

[3] = tested on: ibrutinib-resistant MCL cell lines (Maver-1 and Z-138) versus ibrutinib-sensitive (JeKo-1 and Mino); assay: Glutamine uptake in MCL cell lines; format: cell-based, human; settings: 20 nM for 24 hours; resistant compared with sensitive cells; FIG. 11D
Procedure: as §2

[4] = tested on: ibrutinib-resistant MCL cell lines Maver-1 and Z-138; assay: ROS levels by flow cytometry, ibrutinib-resistant MCL cell lines; format: cell-based, human; settings: Maver-1 and Z-138; IACS-010759 25 nM (text; FIG. 5E legend 20 nM) and/or 5 μM BPTES, 24 hours
Procedure: as §1, with “To determine mitochondria membrane potential (Δψm), treated cells were loaded with MitoStatus tetramethylrhodamine, ethyl ester (TMRE) (BD Biosciences) at 37° C. for 15 min and washed with PBS twice to remove residual TMRE.” left out, “USA). To measure ROS levels, treated cells were harvested, stained with […] CM-H2DCF-DA (C6827, Molecular Probes, Invitrogen) in PBS for 30 min at 37° C., washed twice with PBS, and analyzed in a flow cytometer (FACS Caliber, BD Biosciences) by recording the green fluorescence of oxidized DCF. The mean fluorescence of 10,000 analyzed cells (corrected for auto fluorescence) was taken as a readout for the intracellular ROS load.” for “USA).”

[5] = tested on: ibrutinib-resistant Maver-1 MCL cells; assay: Apoptosis assay (Annexin-V/PI), Maver-1; format: cell-based, human; settings: 72 hours, 20 nM IACS-010759 and/or 5 μM BPTES, FIGS. 5F & 11E
Procedure: (§3) Apoptosis assays. Annexin V-binding assay was used to detect the induction of apoptosis. Cells were seeded in 48-well plates with single agent or combination therapy for various times, or with different concentrations for 48 hours. To quantify the percentages of cells undergoing apoptosis, Annexin V-FITC was used. Briefly, cells were washed twice with cold PBS and then suspended in binding buffer at a concentration of 1×10^6 cells/mL. After incubation, 100 μL of the solution was transferred to a 5-mL tube, to which 5 μL of Annexin V-FITC and 5 μL of PI are added. The tube was gently vortexed and incubated for 15 min at room temperature in dark. At the end of the incubation, 300 μL of binding buffer was added. Flow cytometric analysis was performed immediately with a Novocyte Flow Cytometer (ACEA Biosciences, San Diego, Calif., USA). Data were analyzed with NovoExpress (ACEA Biosciences, San Diego, Calif., USA) or FlowJo10 (Tree Star, Ashland, Oreg., USA).

[6] = tested on: ibrutinib-resistant Z-138 MCL cells; assay: Apoptosis assay (Annexin-V/PI), Z-138; format: cell-based, human; settings: 72 hours, 20 nM IACS-010759 and/or 5 μM BPTES, FIGS. 5F & 11E
Procedure: as §3

[7] = tested on: ibrutinib-resistant MCL PDX
Procedure: Histopathological analysis. Excised tissues from patients and PDX mice were fixed in 10% formalin solution, processed by standard methods, embedded in paraffin, sectioned at 5 μm, and stained with H&E. For immunohistochemical (IHC) evaluation, the tissues are stained with an antibody against human anti-CD20 (Dako, Glostrup, Denmark), counterstained with Harris hematoxylin and examined by standard light microscopy. Samples were analyzed using an Olympus BX51TF microscope equipped with UPlan FL 40×/0.75 and 20×/0.50 objective lenses (Olympus, Melville, N.Y., USA).

[8] = tested on: ibrutinib-resistant high-grade B-cell lymphoma PDX

Cc1nc(-c2nc(-c3ccc(OC(F)(F)F)cc3)no2)nn1Cc1cccc(N2CCC(S(C)(=O)=O)CC2)c1 [IACS-010759]
ETC complex I activity (ETC complex I): reduced
mitochondrial potential (Δψm, TMRE) [1]: decreased
ATP production (intracellular ATP levels) [2]: decreased
glutamine uptake inhibition [3]: greater glutamine uptake inhibition
ROS production [4]: induced ROS production
apoptosis [5]: 23%
apoptosis [6]: 42%
toxicities ([7]; 10 mg/kg oral gavage 5 consecutive days/week): No apparent toxicities
body weight vs vehicle control ([7]; 10 mg/kg oral gavage 5 consecutive days/week, p=0.3304, FIG. 6C): not significantly different
tumor growth by tumor volume ([7]; 10 mg/kg oral gavage 5 consecutive days/week, vs vehicle, n=5, p<0.0001, FIG. 6A): completely prevented tumor growth
tumor growth by human β2M levels ([7]; 10 mg/kg oral gavage 5 consecutive days/week, vs vehicle, n=5, p<0.0001, FIG. 6B): completely prevented tumor growth
H&E and anti-CD20 staining of dissected tissue post-treatment ([7]; end of treatment, a small number of CD20+ cells remained, FIG. 6D): repopulation of the tumor area with fatty deposits
body weight vs vehicle ([8]; 10 mg/kg oral gavage 5 consecutive days/week, p=0.1964, FIG. 12C): not significantly different
tumor growth by tumor volume ([8]; IACS-010759 10 mg/kg 5 days/week (p<0.0001 vs vehicle), ibrutinib 50 mg/kg daily (p=0.7227), oral gavage, FIG. 12A): significantly inhibited tumor growth
tumor growth by human (32M levels) ([8]; IACS-010759 10 mg/kg 5 days/week (p=0.0003 vs vehicle), ibrutinib 50 mg/kg daily (p=0.6911), FIG. 12B): significantly inhibited tumor growth
survival benefit ([8]; compared with vehicle- and ibrutinib-treated mice, FIG. 12D): greater than 20 days
survival of the ibrutinib-resistant PDX mice ([8]; n=5, vs vehicle p=0.0035, vs ibrutinib p=0.0035, FIG. 12D): significantly prolonged the survival

Source: US20200299783A1 (Board of Regents, The University of Texas System, priority 2019, published 2020)
